The results in this text go back to patent publication EP4678638A1, “NEW E3 UBIQUITIN LIGASE LIGAND, PROTEIN DEGRADATION AGENT AND USE THEREOF” (priority 2023, dated 2024).

Structures are written as SMILES.

For one assay, the target named is T1, ALK (Homo sapiens, UniProt Q96SW2+Q9HC35+Q9UM73).
T1 construct: evaluate the effects of the compounds of the present disclosure on the expression of target proteins in cells; endogenous in cells; host or cells: H2228
Nature of the assay: Western blot degradation of ALK (H2228 Cell). The assay is classed as cell-based. The following applies: Table D5. How it is done: Conventional Western blot assay was performed to evaluate the effects of the compounds of the present disclosure on the expression of target proteins in cells.
(1) Cell Seeding and Protein Harvesting: The selected cells were processed according to the cell seeding procedure and protein harvesting procedure in Table III-2. Table III-2 Cell Seeding and Protein Harvesting Procedures
(2) To the collected supernatant, 5X SDS sample loading buffer was added, followed by denaturation at 95°C for 5 minutes. The denatured samples were then separated by SDS-PAGE electrophoresis on a polyacrylamide gel. Proteins were transferred to a nitrocellulose membrane (0.45 µm NC membrane), blocked with blocking buffer at room temperature for 1 hour, and subjected to antibody incubation and development procedures according to the antibody manufacturer's instructions (Cell Signaling Technology).
Half-Maximal Degradation Concentration value (the drug concentration required for degrading proteins by 50%, abbreviated as DC50) reads method: comparing the grayscale values of Western blot bands from drug-treated samples with those from blank DMSO-treated controls, and identifying the drug concentration range at which the grayscale value is half that of the DMSO-treated control bands.
DC50 values can be calculated using ImageJ software to measure grayscale values of Western blot bands from drug-treated samples. The concentration-response curve is fitted to estimate the drug concentration corresponding to half the grayscale value.
Target protein remaining (%) refers to the percentage of target protein remaining in hPBMC cells after treatment with protein degrader compounds.
Calculation method for target protein remaining (%): Use ImageJ software to measure grayscale values of Western blot bands from drug (protein degrader)-treated samples. The grayscale value of drug-treated bands is divided by that of internal control protein bands, and the resulting quotient is normalized to obtain the relative percentage of remaining target protein after protein degrader treatment.
Target protein degradation rate (%) = 100% - target protein remaining (%).
In general terms: In western blotting, separated proteins are transferred to a membrane and probed.

Another assay relates to MCF7. As to the kind of experiment: CCK-8 proliferation, MCF7 (MCF-7). In kind it is cell-based. Particulars: Homo sapiens, MCF7; Table B6, compounds designed based on the ALK inhibitors; MCF-7 cells; read-out: Inhibitory activity (IC50, nM) on tumor cell proliferation, MCF-7. In short, it runs like this:
(§1)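 Tumor cells were cultured at 37°C with 5% CO2, seeded, and after 24h treated with compounds at 10 concentrations starting at 10µM (5-fold serial dilutions).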

The next assay concerns H2228. As to the kind of experiment: CCK-8 proliferation, NCI-H2228 (H2228). Particulars: Homo sapiens, NCI-H2228; Table B6, compounds designed based on the ALK inhibitors; H2228 cells; read-out: Inhibitory activity (IC50, nM) on tumor cell proliferation, H2228. The assay is classed as cell-based. In outline:
as §1

The next assay relates to SR. Nature of the assay: CCK-8 proliferation, SR. The following applies: Homo sapiens; Table B6, compounds designed based on the ALK inhibitors; SR cells; read-out: Inhibitory activity (IC50, nM) on tumor cell proliferation, SR. The assay is classed as cell-based, Human. In short, it runs like this:
as §1

Another assay deals with H1975. As to the kind of experiment: CCK-8 proliferation, NCI-H1975 (H1975). The following applies: Homo sapiens, NCI-H1975; Table B6, compounds designed based on the ALK inhibitors; H1975 cells; read-out: Inhibitory activity (IC50, nM) on tumor cell proliferation, H1975. In kind it is cell-based, Human. In outline: as §1

T1 sequence (Q9HC35+Q9UM73 fused): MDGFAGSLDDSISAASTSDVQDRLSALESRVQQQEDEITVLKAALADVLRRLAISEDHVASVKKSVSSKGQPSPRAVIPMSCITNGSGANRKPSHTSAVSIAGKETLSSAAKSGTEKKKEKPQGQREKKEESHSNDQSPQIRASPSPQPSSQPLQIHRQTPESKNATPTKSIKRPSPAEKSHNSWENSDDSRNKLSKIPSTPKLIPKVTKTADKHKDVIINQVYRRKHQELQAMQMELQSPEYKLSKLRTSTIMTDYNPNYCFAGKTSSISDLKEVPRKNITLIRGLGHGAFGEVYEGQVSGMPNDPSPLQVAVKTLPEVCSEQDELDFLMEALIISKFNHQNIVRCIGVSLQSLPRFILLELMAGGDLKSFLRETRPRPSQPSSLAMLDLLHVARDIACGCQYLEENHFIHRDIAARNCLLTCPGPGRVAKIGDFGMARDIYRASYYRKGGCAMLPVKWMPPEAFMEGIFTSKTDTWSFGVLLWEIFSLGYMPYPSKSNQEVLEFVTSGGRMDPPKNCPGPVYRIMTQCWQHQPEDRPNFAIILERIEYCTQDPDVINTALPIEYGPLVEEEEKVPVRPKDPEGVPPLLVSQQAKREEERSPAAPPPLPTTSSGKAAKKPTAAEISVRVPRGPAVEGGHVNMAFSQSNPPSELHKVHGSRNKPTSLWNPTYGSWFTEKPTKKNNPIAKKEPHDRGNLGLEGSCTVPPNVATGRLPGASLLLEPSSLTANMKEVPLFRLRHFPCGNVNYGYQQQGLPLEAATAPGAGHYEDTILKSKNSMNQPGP
T1 sequence (Q96SW2 whole entry): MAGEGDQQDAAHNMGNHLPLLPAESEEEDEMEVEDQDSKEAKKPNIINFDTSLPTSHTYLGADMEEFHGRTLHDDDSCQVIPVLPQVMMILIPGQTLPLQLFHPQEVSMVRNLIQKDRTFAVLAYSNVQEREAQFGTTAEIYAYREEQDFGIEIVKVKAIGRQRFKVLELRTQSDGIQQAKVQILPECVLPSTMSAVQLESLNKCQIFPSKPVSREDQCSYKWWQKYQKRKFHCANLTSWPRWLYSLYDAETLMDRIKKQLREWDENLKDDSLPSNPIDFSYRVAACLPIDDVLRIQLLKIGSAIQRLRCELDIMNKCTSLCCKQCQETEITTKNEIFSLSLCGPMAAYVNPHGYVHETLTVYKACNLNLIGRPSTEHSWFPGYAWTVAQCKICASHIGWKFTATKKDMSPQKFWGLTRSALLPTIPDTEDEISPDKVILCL
T1 sequence (Q16531 whole entry partner): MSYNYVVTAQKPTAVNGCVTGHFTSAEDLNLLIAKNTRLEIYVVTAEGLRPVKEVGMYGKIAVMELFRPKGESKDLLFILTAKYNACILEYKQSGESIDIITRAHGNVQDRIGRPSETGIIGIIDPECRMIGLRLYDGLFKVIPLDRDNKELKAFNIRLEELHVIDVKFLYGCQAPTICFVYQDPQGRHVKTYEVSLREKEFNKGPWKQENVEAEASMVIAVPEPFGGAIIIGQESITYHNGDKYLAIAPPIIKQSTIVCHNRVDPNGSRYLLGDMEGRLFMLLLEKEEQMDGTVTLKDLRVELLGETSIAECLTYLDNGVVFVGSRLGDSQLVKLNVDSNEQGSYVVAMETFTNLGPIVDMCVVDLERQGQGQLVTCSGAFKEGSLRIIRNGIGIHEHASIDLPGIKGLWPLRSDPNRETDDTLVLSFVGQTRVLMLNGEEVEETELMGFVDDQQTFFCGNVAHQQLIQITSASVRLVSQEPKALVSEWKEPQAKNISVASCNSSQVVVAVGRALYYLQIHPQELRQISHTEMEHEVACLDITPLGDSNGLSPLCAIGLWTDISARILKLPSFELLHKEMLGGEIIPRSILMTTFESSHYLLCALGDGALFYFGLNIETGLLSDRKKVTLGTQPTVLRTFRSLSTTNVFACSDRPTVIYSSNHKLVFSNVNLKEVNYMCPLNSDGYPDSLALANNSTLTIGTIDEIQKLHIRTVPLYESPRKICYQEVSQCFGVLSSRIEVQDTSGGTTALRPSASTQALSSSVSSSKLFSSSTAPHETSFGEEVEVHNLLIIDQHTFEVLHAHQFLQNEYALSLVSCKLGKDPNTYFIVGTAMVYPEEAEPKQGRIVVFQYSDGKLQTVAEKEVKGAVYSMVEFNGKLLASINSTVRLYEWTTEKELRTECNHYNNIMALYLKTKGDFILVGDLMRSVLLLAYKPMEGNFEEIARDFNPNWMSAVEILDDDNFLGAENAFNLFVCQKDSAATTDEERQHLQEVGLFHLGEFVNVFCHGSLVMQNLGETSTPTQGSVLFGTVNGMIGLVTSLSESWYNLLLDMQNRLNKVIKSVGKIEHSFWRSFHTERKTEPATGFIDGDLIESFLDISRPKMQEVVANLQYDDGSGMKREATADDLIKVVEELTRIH

With `CCc1cc2c(cc1N1CCC(N3CCN(Cc4ccc(N5CCC(=O)NC5=O)nc4)CC3)CC1)C(C)(C)c1[nH]c3cc(C#N)ccc3c1C2=O` [GT-07312, 8-(4-(4-((6-(2,4-dioxotetrahydropyrimidin-1(2H)-yl)pyridin-3-yl)methyl)piperazin-1-yl)piperidin-1-yl)-9-ethyl-6,6-dimethyl-11-oxo-6,11-dihydro-5H-benzo[b]carbazole-3-carbonitrile], at ALK, the “Degradation of substrate protein ALK (substrate protein remaining %)” value (from here on “Degradation … (substrate protein remaining %)”) is given as “A (A is defined as 0% ≤ substrate protein remaining % ≤ 80%)”. The IC50 lay in the range of 500 to 1000 nM with MCF7, 50 to 100 nM with H2228 and 1 to 10 nM in the assay on SR.
The like results for `CCc1cc2c(cc1N1CCN(Cc3ccc(N4CCC(=O)NC4=O)cc3)CC1)C(C)(C)c1[nH]c3cc(C#N)ccc3c1C2=O` [GT-07324, 8-(4-(4-(2,4-dioxotetrahydropyrimidin-1(2H)-yl)benzyl)piperazin-1-yl)-9-ethyl-6,6-dimethyl-11-oxo-6,11-dihydro-5H-benzo[b]carbazole-3-carbonitrile] were, in that order, “A (A is defined as 0% ≤ substrate protein remaining % ≤ 80%)”, 500 to 1000 nM, 100 to 500 nM and 10 to 50 nM.
Take `CCc1cc2c(cc1N1CCN(Cc3ccc(N4CCC(=O)NC4=O)cn3)CC1)C(C)(C)c1[nH]c3cc(C#N)ccc3c1C2=O` [GT-07326, 8-(4-((5-(2,4-dioxotetrahydropyrimidin-1(2H)-yl)pyridin-2-yl)methyl)piperazin-1-yl)-9-ethyl-6,6-dimethyl-11-oxo-6,11-dihydro-5H-benzo[b]carbazole-3-carbonitrile]: the “Degradation … (substrate protein remaining %)” value at ALK is “A (A is defined as 0% ≤ substrate protein remaining % ≤ 80%)”. Further, the IC50 with H2228 is 100 to 500 nM; in the assay with SR, 10 to 50 nM.
On to `CCc1cc2c(cc1N1CCN(Cc3ccc(N4CCC(=O)NC4=O)nc3)CC1)C(C)(C)c1[nH]c3cc(C#N)ccc3c1C2=O` [GT-07327, 8-(4-((6-(2,4-dioxotetrahydropyrimidin-1(2H)-yl)pyridin-3-yl)methyl)piperazin-1-yl)-9-ethyl-6,6-dimethyl-11-oxo-6,11-dihydro-5H-benzo[b]carbazole-3-carbonitrile], for which the “Degradation … (substrate protein remaining %)” value at ALK is “A (A is defined as 0% ≤ substrate protein remaining % ≤ 80%)”. The IC50 with MCF7 lay in the range of 500 to 1000 nM; with H2228, 100 to 500 nM; with SR, 1 to 10 nM.
Turning to `CCc1cc2c(cc1N1CCN(Cc3cccc(NC4CCC(=O)NC4=O)c3)CC1)C(C)(C)c1[nH]c3cc(C#N)ccc3c1C2=O` (stereo not drawn) [GT-07328, 8-(4-(3-((2,6-dioxopiperidin-3-yl)amino)benzyl)piperazin-1-yl)-9-ethyl-6,6-dimethyl-11-oxo-6,11-dihydro-5H-benzo[b]carbazole-3-carbonitrile], the “Degradation … (substrate protein remaining %)” value at ALK is recorded as “A (A is defined as 0% ≤ substrate protein remaining % ≤ 80%)”. The IC50 in the assay on H2228 was in the range of 100 to 500 nM; with SR, 10 to 50 nM.
Regarding `COc1cc(N2CCN(Cc3ccc(N4CCC(=O)NC4=O)cc3F)CC2)ccc1Nc1ncc(Cl)c(Nc2ccccc2P(C)(C)=O)n1` [GT-07347, 1-(4-((4-(4-((5-chloro-4-((2-(dimethylphosphoryl)phenyl)amino)pyrimidin-2-yl)amino)-3-methoxyphenyl)piperazin-1-yl)methyl)-3-fluorophenyl)dihydropyrimidine-2,4(1H,3H)-dione], at ALK, the “Degradation … (substrate protein remaining %)” value was “A (A is defined as 0% ≤ substrate protein remaining % ≤ 80%)”. Further, the IC50 was 100 to 500 nM in the assay with H2228, 10 to 50 nM with SR and 100 to 500 nM in the assay on H1975.
Turning to `COc1cc(N2CCN(Cc3cccc(N4CCC(=O)NC4=O)c3)CC2)ccc1Nc1ncc(Cl)c(Nc2ccccc2P(C)(C)=O)n1` [GT-07348, 1-(3-((4-(4-((5-chloro-4-((2-(dimethylphosphoryl)phenyl)amino)pyrimidin-2-yl)amino)-3-methoxyphenyl)piperazin-1-yl)methyl)phenyl)dihydropyr imidine-2,4(1H,3H)-dione], the “Degradation … (substrate protein remaining %)” value at ALK is given as “A (A is defined as 0% ≤ substrate protein remaining % ≤ 80%)”. For the same molecule, the IC50 in the assay with H2228 lay in the range of 100 to 500 nM; in the assay with SR, 10 to 50 nM; in the assay on H1975, 500 to 1000 nM.
For `COc1cc(N2CCN(Cc3ccc(N4CCC(=O)NC4=O)cn3)CC2)ccc1Nc1ncc(Cl)c(Nc2ccccc2P(C)(C)=O)n1` [GT-07349, 1-(6-((4-(4-((5-chloro-4-((2-(dimethylphosphoryl)phenyl)amino)pyrimidin-2-yl)amino)-3-methoxyphenyl)piperazin-1-yl)methyl)pyridin-3-yl)dihydropyrimidine-2,4(1H,3H)-dione] the same measures were “A (A is defined as 0% ≤ substrate protein remaining % ≤ 80%)”, 500 to 1000 nM, 50 to 100 nM and 500 to 1000 nM.
Turning to `Cc1cc(Nc2ncc(Cl)c(Nc3ccccc3S(=O)(=O)C(C)C)n2)c(OC(C)C)cc1C1CCN(Cc2ccc(N3CCC(=O)NC3=O)cc2)CC1` [GT-07592, 1-(4-((4-(4-((5-chloro-4-((2-(isopropylsulfonyl)phenyl)amino)pyrimidin-2-yl)amino)-5-isopropoxy-2-methylphenyl)piperidin-1-yl)methyl)phenyl)dihydropyr imidine-2,4(1H,3H)-dione], the “Degradation … (substrate protein remaining %)” value at ALK was “A (A is defined as 0% ≤ substrate protein remaining % ≤ 80%)”. For the same molecule, the values for the IC50 with MCF7, with H2228 and in the assay with SR were 500 to 1000 nM, 100 to 500 nM and 10 to 50 nM, respectively.
On to `Cc1cc(Nc2ncc(Cl)c(Nc3ccccc3S(=O)(=O)C(C)C)n2)c(OC(C)C)cc1C1CCN(Cc2cccc(NC3CCC(=O)NC3=O)c2)CC1` (stereo not drawn) [GT-07594, 3-((3-((4-(4-((5-chloro-4-((2-(isopropylsulfonyl)phenyl)amino)pyrimidin-2-yl)amino)-5-isopropoxy-2-methylphenyl)piperidin-1-yl)methyl)phenyl)amino)pip eridine-2,6-dione], for which, at ALK, the “Degradation … (substrate protein remaining %)” value was “A (A is defined as 0% ≤ substrate protein remaining % ≤ 80%)”. Besides, the IC50 in the assay with H2228 lay within 100 to 500 nM; in the assay with SR it was 50 to 100 nM.
The like results for `Cc1cc(Nc2ncc(Cl)c(Nc3ccccc3S(=O)(=O)C(C)C)n2)c(OC(C)C)cc1C1CCN(Cc2cc(N3CCC(=O)NC3=O)ncc2F)CC1` [GT-07595, 1-(4-((4-(4-((5-chloro-4-((2-(isopropylsulfonyl)phenyl)amino)pyrimidin-2-yl)amino)-5-isopropoxy-2-methylphenyl)piperidin-1-yl)methyl)-5-fluoropyridin-2-yl)dihydropyrimidine-2,4(1H,3H)-dione] were, in that order, “A (A is defined as 0% ≤ substrate protein remaining % ≤ 80%)”, 500 to 1000 nM and 100 to 500 nM.
Take `Cc1cc(Nc2ncc(Cl)c(Nc3ccccc3S(=O)(=O)C(C)C)n2)c(OC(C)C)cc1C1CCN(Cc2ccnc(N3CCC(=O)NC3=O)c2)CC1` [GT-07596, 1-(4-((4-(4-((5-chloro-4-((2-(isopropylsulfonyl)phenyl)amino)pyrimidin-2-yl)amino)-5-isopropoxy-2-methylphenyl)piperidin-1-yl)methyl)pyridin-2-yl)dihydropyrimidine-2,4(1H,3H)-dione]: on ALK, the “Degradation … (substrate protein remaining %)” value was “A (A is defined as 0% ≤ substrate protein remaining % ≤ 80%)”. Besides, the IC50 with MCF7 was 100 to 500 nM; in the assay with H2228, 100 to 500 nM; in the assay with SR, 10 to 50 nM.
For `COc1cc(N2CCC(N3CCN(Cc4cc(C5CCC(=O)NC5=O)cnc4F)CC3)CC2)ccc1Nc1ncc(Cl)c(Nc2ccccc2P(C)(C)=O)n1` (stereo not drawn) [GT-07611, 3-(5-((4-(1-(4-((5-chloro-4-((2-(dimethylphosphoryl)phenyl)amino)pyrimidin-2-yl)amino)-3-methoxyphenyl)piperidin-4-yl)piperazin-1-yl)methyl)-6-fluoropyridin-3-yl)piperidine-2,6-dione], at ALK, the “Degradation … (substrate protein remaining %)” value is “A (A is defined as 0% ≤ substrate protein remaining % ≤ 80%)”. Also, the values for the IC50 with H2228, in the assay on SR and in the assay on H1975 were 10 to 50 nM, 1 to 10 nM and 500 to 1000 nM, respectively.
